Experimental data as given in patent US20230248835A1, “COMPOUNDS, COMPOSITIONS, AND METHODS FOR THE TREATMENT OF FIBROTIC DISEASES AND CANCER” (Purdue Research Foundation, priority 2020, published 2023).

Columns and labels:
[1] = Systemic cytokine release in healthy mice after tail vein injection; type: in vivo; settings: healthy Balb/c mice, 10 nmol tail vein, 1 hour or 1.5 hours after treatment
Description: Female Balb/c mice were purchased from Charles Rivers, housed in a sterile environment on a standard 12-hour light-dark cycle, and maintained on a folate-deficient diet. All animal procedures were approved by the Purdue Animal Care and Use Committee in accordance with National Institutes of Health guidelines.
Healthy mice were tail vein injected with 10 nmol Compound A (TLR7-1) or Compound 1 (TLR7-1A), and peripheral blood was collected at indicated time points after drug injection. (FIGS. 3C and 3D). The effect of drug on plasma levels of IL-6 (FIG. 3C), and tumor necrosis factor alpha (TNF-α) (FIG. 3D) was determined at 1 hour or 1.5 hours after treatment. Both Compounds A and 1 stimulated systemic cytokine release in healthy mice.

[2] = test system: human primary monocyte derived M2-macrophages; assay: Cytokine induction in human primary monocyte derived M2-macrophages; type: cell-based; settings: 48 hours; for induction of interleukin-6 (IL-6): compared to parent compound TLR7-1, FIG. 3A; for induction of C-X-C motif chemokine ligand 10 (CXCL-10): compared to parent compound TLR7-1, FIG. 3B; for polarization of M2 macrophages to M1 macrophages: shown by increased M1 markers IL-6 and CXCL10
[3] = test system: human peripheral blood mononuclear cells (PBMCs); assay: IL-6 production in human PBMCs treated with TLR7 agonists (ELISA); type: cell-based; settings: 24 hours, compared to control Compound A (TLR7-1), FIG. 2
Experimental: To evaluate the efficacy of TLR-7 agonists, Compounds 1 (TLR7-1A), 2 (TLR7-1B) and 3 (TLR7-1C) were treated with human peripheral blood mononuclear cells (PBMCs) for 24 hours and cytokine production was thereafter assessed. Human PBMCs were isolated from healthy donors by density gradient centrifugation following standard procedure. 18 mL of blood were diluted with 2% fetal bovine serum (FBS) in phosphate-buffered saline (PBS) (1:1 dilution) and transferred slowly into a 50 mL SepMate™ PBMC isolation tube containing 12 mL of Ficoll-Paque®. The tube was centrifuged at 1200 g for 10 minutes and PBMCs were transferred into a fresh 50 mL tube.
PBMCs were washed with 2×50 mL of 2% FBS in PBS and plated in 96 well plate at a density of 2×10^5 cells/200 μL RPMI medium. This was treated with different concentrations of TLR7 agonist for 24 hours.
Compound A (TLR7-1) was used as control. Cell culture supernatants were isolated and cytokine levels were calculated using an enzyme-linked immunosorbent assay (ELISA) kit (FIG. 2).

[4] = test system: mouse bone marrow-derived M2-macrophages; assay: Macrophage polarization in mouse bone marrow-derived M2 macrophages (ELISA); type: cell-based; settings: 48 hours
Experimental: Bone marrow cells were isolated from tibias and femurs of male C57BL/6 mice and were differentiated to macrophages with mouse M-CSF (20 ng/mL). The macrophages were then polarized to M2 phenotype with 20 ng/mL of […] for 48 hours. Interferon-γ (IFN-γ), interleukin-4 (IL-4), and interleukin-13 (IL-13) were obtained from Biolgend (San Diego, Calif.). Lipopolysaccharide (LPS) was purchased from Sigma-Aldrich (St. Louis, Mo.).
The resulting M2 macrophages were then incubated with varying concentrations of Resiquimod, GSK2245035, Compound 1, Compound 2, and Compound 3 for 48 hours. Supernatant was harvested and cytokines were analyzed using ELISA. (Resiquimod and GSK2245035 are known TLR7 agonists.)

[5] = test system: human PBMC-derived M2 macrophages; assay: Surface markers during macrophage polarization (flow cytometry); type: cell-based; settings: 48 hours
Experimental: Human PMBC-derived M2 macrophages were treated with different concentrations of folate-TLR7 agonists (e.g., Compound 4) for 48 hours, and macrophage cells were detached using Accutase cell detachment Solution (Biolegend, San Diego, Calif.; #423201) and gently lifted with a cell scraper. Cells were washed with PBS and nonspecific binding was blocked by incubation with Fc receptor blocking solution (Biolegend, San Diego, Calif.) at room temperature for 10 minutes. The resulting single cell suspensions were stained for M2 macrophage marker CD206, and M1 macrophage markers CD80 and CD40. All the samples were then analyzed by flow cytometry.

[6] = test system: human PBMC-derived M2 macrophages; assay: Reprogramming of human PBMC-derived M2 macrophages by folate-TLR7 conjugates (qPCR, ELISA); type: cell-based; settings: increased M1 markers
Experimental: To evaluate the efficacy of the releasable and non-releasable conjugates, freshly isolated PBMCs were plated with monocyte attachment medium at a seeding density of 1 million cells/cm^2. This was incubated for about 2 hours at 5% CO2 and 37° C. in the incubator. Non-adherent cells were removed, and the monocytes were washed three times with warm monocyte attachment medium. The monocytes were cultured in folate deficient RPMI 1640 medium. This was differentiated into unpolarized macrophages by incubating with fresh RPMI medium containing 20 ng/mL of M-CSF supplemented with 1% penicillin streptomycin (Invitrogen, Carlsbad, Calif.) and 10% FBS.
After 3 days, the medium was replaced with fresh RPMI medium containing 20 ng/mL of M-CSF. […]
qPCR analyses were performed using the iTaq™ Universal SYBR Green SuperMix (Bio-Rad Laboratories, Inc., Hercules, Calif.; #1725121), iCycler thermocycler, and iCycler iQ 3.0 software (Bio-Rad Laboratories Inc., Hercules, Calif.) to track the expression of markers characteristic of macrophage polarization states. […] Each sample was analyzed independently in triplicate for each marker. IL-6, CXCL-10 and TNF-α protein expression in the cell culture supernatants were calculated using the commercially available ELISA kits (Biolegend, San Diego, Calif.).

4T1 metastatic tumor = 4T1 metastatic tumor model, lung metastatic colony formation (6-thioguanine assay); type: in vivo; settings: Balb/c mice, 50 nmole/kg intravenously once/week
Experimental: Additional 4T1 solid tumor metastatic studies were also performed. There, lung metastatic colony formation assay was carried out following the reported procedure (Cresswell et al., Folate receptor beta designates immunosuppressive tumor-associated myeloid cells that can be reprogrammed with folate-targeted drugs, Cancer Research 2021, 81(3), 671-684). 6-8 weeks old Balb/c mice were implanted with 50,000 4T1 cells in the mammary fat pad and tumors were allowed to grow until they reached ˜50 mm^3. Mice were then injected intravenously with 100 μl of Folate-TLR7 conjugate (Compound 4) (50 nmole/kg) once/week. The control group received an equal volume of PBS on the same schedule. At the end of the treatment, metastasis in lung was evaluated in disease control and treatment group by co-culturing lung-digested cells with 6-thioguanine ([…]) in complete RPMI-1640 media for 10 days in petri plates. Metastatic colonies were visualized by fixing the plates with 5 mL of methanol followed by 5 mL deionized water wash and then stained with 0.03% methylene blue (see FIG. 15C). Total blue colonies from each plate were then counted.

4T1 solid tumor = 4T1 solid tumor model in mice; type: in vivo; settings: BalB/c mice; for polarization of the macrophages from M2 to M1 phenotype in tumor: 4T1 solid tumors, flow cytometry; for tumor size: subcutaneous 4T1, intravenous, Compound 5 10 nmol/mouse, Compound 4 different concentrations
Experimental: In additional in vivo studies, 6-8 week old female BalB/c mice (Charles River Laboratories International, Inc., Wilmington, Mass.) were transferred upon arrival to a folic acid-deficient diet (TD.95247, Envigo Corporation, Indianapolis, Ind.). On day 14, mice were implanted subcutaneously with 5.0×10^4 of 4T1 cells and tumors were allowed to grow until they reach ˜50 mm^3. Mice were then injected intravenously with different concentrations of 100 μl of Folate-TLR7 conjugate Compounds 4 or 10 nmol/mouse of Compound 5). Control groups received 100 μl of 3% DMSO in PBS on the same schedule.
Tumor volume was concurrently measured with calipers using the formula (a×b^2)/2 (a being the largest and b being the smallest diameter of the tumor) (see FIGS. 10A, 10B, and 14). When desired, mice were sacrificed, and derived tumor fragments were dissociated using a human tumor dissociation kit. The resulting single cell suspensions were stained for antibodies and the samples were then analyzed by flow cytometry. Percentage of CD4 and CD8 T cell populations were tested in live cells isolated from 4T1 solid tumors in groups of untreated control and Folate-TLR7 conjugate treatment groups.

| Structure (SMILES) | induction of interleukin-6 (IL-6) [2] | induction of C-X-C motif chemokine ligand 10 (CXCL-10) [2] | polarization of M2 macrophages to M1 macrophages [2] | expression of IL-6 in PBMCs [3] | polarization of the macrophages from M2 to M1 phenotype in tumor (4T1 solid tumor) | tumor size (4T1 solid tumor) | further results |
| --- | --- | --- | --- | --- | --- | --- | --- |
| CCCCc1nc2c(N)nc3ccccc3c2n1CC(C)(C)CO [Compound 1, 3-(4-amino-2-butyl-1H-imidazo[4,5-c]quinolin-1-yl)-2,2-dimethylpropan-1-ol] | more efficiently | more efficiently | polarize the M2 macrophages to M1 macrophages | increased |  |  | systemic cytokine release (plasma IL-6, TNF-α) [1]: stimulated; M1 marker IL-6 ([4]; supernatant ELISA, FIG. 4A): increase; M1 marker TNF-α ([4]; supernatant ELISA, FIG. 4B): increase; polarization of macrophages from M2 to M1 phenotype ([4]; varying concentrations, FIGS. 4A and 4B): efficiently polarized |
| CCCCc1nc2c(N)nc3ccccc3c2n1CC(C)(C)CN [Compound 2, 1-(3-amino-2,2-dimethylpropyl)-2-butyl-1H-imidazo[4,5-c]quinolin-4-amine] | more efficiently | more efficiently | polarize the M2 macrophages to M1 macrophages | increased |  |  |  |
| CCCCc1nc2c(N)nc3ccccc3c2n1CC(C)(C)N [Compound 3, 1-(2-amino-2-methylpropyl)-2-butyl-1H-imidazo[4,5-c]quinolin-4-amine] | more efficiently | more efficiently | polarize the M2 macrophages to M1 macrophages | increased |  |  |  |
| CCCCc1nc2c(N)nc3ccccc3c2n1CC(C)(C)COCCOCCOCCOCCNC(=O)CC[C@H](NC(=O)c1ccc(NCc2cnc3nc(N)[nH]c(=O)c3n2)cc1)C(=O)O [Compound 4, (S)-1-(4-amino-2-butyl-1H-imidazo[4,5-c]quinolin-1-yl)-20-(4-(((2-amino-4-oxo-3,4-dihydropteridin-6-yl)methyl)amino)benzamido)-2,2-dimethyl-17-oxo-4,7,10,13-tetraoxa-16-azahenicosan-21-oic acid] |  |  |  |  | shifted polarization of the macrophages from M2 to M1 phenotype | reduction | M1 surface marker CD40 ([5]; FIG. 12A): increased; M1 surface marker CD80 ([5]; FIG. 12B): increased; polarization of M2 macrophages to M1 macrophages ([5]; FIGS. 12A and 12B): polarized the M2 macrophages to M1 macrophages; polarization of M2 macrophages to M1 macrophages ([6]; 3 hours or 3+45 hours, FIGS. 11A-11D): polarized the M2 macrophages to M1 macrophages; number of metastatic colonies (lung) (4T1 metastatic tumor; 6-thioguanine assay, FIG. 15B-C): significantly decreased; volume of the tumor (4T1 metastatic tumor; 4T1 in mammary fat pad, FIG. 15A): significantly decreased |
| CCCCc1nc2c(N)nc3ccccc3c2n1CC(C)(C)COC(=O)OCCSSC[C@H](NC(=O)CCOCCOCCOCCNC(=O)CC[C@H](NC(=O)c1ccc(NCc2cnc3nc(N)[nH]c(=O)c3n2)cc1)C(=O)O)C(=O)O [Compound 5] |  |  |  |  | shifted polarization of the macrophages from M2 to M1 phenotype | reduction | polarization of M2 macrophages to M1 macrophages ([6]; 3+45 hours, FIG. 9): polarized the M2 macrophages to M1 macrophages |
